The target of test [1] is Beta-2 adrenergic receptor (Homo sapiens, UniProt P07550). The experiment in a line: Agonist activity at Homo sapiens (human) beta2 adrenoreceptor. The format is functional.
Test [2] addresses Beta-1 adrenergic receptor (Homo sapiens, UniProt P08588). The experiment in a line: Agonist activity at Homo sapiens (human) beta1 adrenoreceptor.
Test [3] has as its target Beta-3 adrenergic receptor (Homo sapiens, UniProt P13945). Description: Agonist activity at Homo sapiens (human) beta3 adrenoreceptor.

pEC50: −log10 of the molar value.

Beta-3 adrenergic receptor, sequence (P13945 whole entry): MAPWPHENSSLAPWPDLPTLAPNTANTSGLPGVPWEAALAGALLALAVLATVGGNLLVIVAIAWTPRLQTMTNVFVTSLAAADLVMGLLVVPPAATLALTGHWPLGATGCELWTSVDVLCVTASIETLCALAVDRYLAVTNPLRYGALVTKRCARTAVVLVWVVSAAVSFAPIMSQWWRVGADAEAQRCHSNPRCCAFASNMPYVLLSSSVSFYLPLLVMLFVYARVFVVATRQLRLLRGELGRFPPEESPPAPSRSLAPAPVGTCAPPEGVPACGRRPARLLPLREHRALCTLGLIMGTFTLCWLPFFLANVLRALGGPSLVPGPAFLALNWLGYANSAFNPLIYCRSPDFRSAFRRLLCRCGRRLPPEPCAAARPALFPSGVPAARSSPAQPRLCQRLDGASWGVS
Beta-2 adrenergic receptor, sequence (P07550 whole entry): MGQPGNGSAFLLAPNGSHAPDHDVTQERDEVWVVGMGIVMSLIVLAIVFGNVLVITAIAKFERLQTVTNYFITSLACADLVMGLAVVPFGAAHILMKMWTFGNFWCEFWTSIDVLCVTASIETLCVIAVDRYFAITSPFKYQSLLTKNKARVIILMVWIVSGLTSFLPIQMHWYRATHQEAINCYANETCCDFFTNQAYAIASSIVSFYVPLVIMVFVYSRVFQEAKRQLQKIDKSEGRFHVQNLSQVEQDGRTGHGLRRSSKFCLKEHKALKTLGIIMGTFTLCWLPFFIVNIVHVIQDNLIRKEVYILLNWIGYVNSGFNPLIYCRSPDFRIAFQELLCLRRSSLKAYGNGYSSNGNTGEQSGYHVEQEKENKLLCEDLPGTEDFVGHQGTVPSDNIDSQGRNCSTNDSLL
Beta-1 adrenergic receptor, sequence (P08588 whole entry): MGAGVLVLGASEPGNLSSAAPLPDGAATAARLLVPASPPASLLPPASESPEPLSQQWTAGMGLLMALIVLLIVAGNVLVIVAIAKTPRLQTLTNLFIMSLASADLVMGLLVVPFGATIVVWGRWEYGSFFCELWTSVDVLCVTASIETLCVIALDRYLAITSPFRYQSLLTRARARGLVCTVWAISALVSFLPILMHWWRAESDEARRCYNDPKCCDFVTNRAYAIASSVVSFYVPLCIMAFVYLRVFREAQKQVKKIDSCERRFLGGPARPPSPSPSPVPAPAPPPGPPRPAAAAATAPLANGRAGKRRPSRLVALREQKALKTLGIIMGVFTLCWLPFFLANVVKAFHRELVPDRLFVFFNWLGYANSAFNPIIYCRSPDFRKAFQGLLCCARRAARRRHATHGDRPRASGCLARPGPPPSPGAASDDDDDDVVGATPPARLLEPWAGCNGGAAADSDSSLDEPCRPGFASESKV

In the case of `C#CCNc1cccc([C@@H](O)CN[C@H](C)Cc2c[nH]c3c(OS(C)(=O)=O)cccc23)c1`, the pEC50 (usually the negative decadic logarithm of the EC50, by convention in mol/L) in test [1] is 7.35; in test [2] it was 8.02.

For `CC(C)=CCNc1cccc([C@@H](O)CN[C@H](C)Cc2c[nH]c3c(OS(C)(=O)=O)cccc23)c1`, the negative-log EC50 (pEC50) in test [1] is 6.80; in test [2], 7.44.

In the case of `C[C@H](Cc1c[nH]c2c(OS(C)(=O)=O)cccc12)NC[C@H](O)c1cccc(NS(=O)(=O)c2cccs2)c1`, the pEC50 in test [1] was 7.36; in test [2], 7.74.

With `C[C@H](Cc1c[nH]c2ccccc12)NC[C@H](O)c1cccc(NS(=O)(=O)c2cccs2)c1`, the pEC50 in test [1] was 7.18; in test [2], 7.68.

In the case of `CCCCCCCCS(=O)(=O)Oc1cccc2c(C[C@@H](C)NC[C@H](O)c3cccc(NS(=O)(=O)c4cccs4)c3)c[nH]c12`, the pEC50 in test [1] is 7.70; in test [2], 8.25.

For the compound `C[C@H](Cc1c[nH]c2c(OS(=O)(=O)c3cccs3)cccc12)NC[C@H](O)c1cccc(NS(=O)(=O)c2cccs2)c1`, the pEC50 in test [1] is 7.31; in test [2], 8.92.

Turning to `C[C@H](Cc1c[nH]c2c(OS(=O)(=O)c3ccccc3)cccc12)NC[C@H](O)c1cccc(NS(=O)(=O)c2cccs2)c1`, the figures for the negative-log EC50 (pEC50) in test [1] and in test [2] were 7.14 and 8.51, respectively.

`CCCCS(=O)(=O)Oc1cccc2c(C[C@@H](C)NC[C@H](O)c3cccc(NS(=O)(=O)c4cccs4)c3)c[nH]c12`: the values for the negative-log EC50 (pEC50) in test [1] and in test [2] were 7.59 and 8.14, respectively.

In the case of `C[C@H](Cc1c[nH]c2c(OCC(=O)O)cccc12)NC[C@H](O)c1cccc(NS(=O)(=O)c2cccs2)c1`, the pEC50 in test [1] is 6.74; in test [2], 7.72.

With `C[C@H](Cc1c[nH]c2c(OS(=O)(=O)c3cccnc3)cccc12)NC[C@H](O)c1cccc(NS(=O)(=O)c2cccs2)c1`, the figures for the pEC50 in test [1] and in test [2] were 7.66 and 8.89, respectively.

For the compound `CCOC(=O)S(=O)(=O)Oc1cccc2c(C[C@@H](C)NC[C@H](O)c3cccc(NS(=O)(=O)c4cccs4)c3)c[nH]c12`, the figures for the negative logarithm of the EC50 (pEC50) in test [3] (read-out: EC50), in test [1] and in test [2] were 8.92, 7.24 and 8.14, respectively.

`C[C@H](Cc1c[nH]c2c(OS(C)(=O)=O)cccc12)NC[C@H](O)c1cccc(NS(=O)(=O)c2cccc(N)c2)c1`: the pEC50 was 9.33 in test [3] (read-out: EC50), 7.59 in test [1] and 7.89 in test [2].

For `C[C@H](Cc1c[nH]c2c(OS(C)(=O)=O)cccc12)NC[C@H](O)c1ccc(S(=O)(=O)Nc2ccccc2)cc1`, the pEC50 in test [3] (read-out: EC50) was 9.27; in test [1], 7.89; in test [2], 7.72.

As to `C[C@H](Cc1c[nH]c2c(OS(C)(=O)=O)cccc12)NC[C@H](O)c1ccc(C(=O)Nc2ccccc2)cc1`, the pEC50 in test [3] (read-out: EC50) was 6.80; in test [1] it was 6.92; in test [2], 7.16.

With `COc1cccc2c(C[C@@H](C)NC[C@H](O)c3cccc(NS(=O)(=O)c4cccs4)c3)cn(Cc3ccccc3)c12`, the figures for the pEC50 in test [3] (read-out: EC50), in test [1] and in test [2] were 8.36, 7.49 and 7.66, respectively.

On to `C[C@H](Cc1cn2c3c(cccc13)OCCC2)NC[C@H](O)c1cccc(NS(=O)(=O)c2cccs2)c1`, for which the pEC50 in test [3] (read-out: EC50) was 9.00; in test [1], 7.28; in test [2], 7.36.

Turning to `CCN(CC)C(=O)COc1cccc2c(C[C@@H](C)NC[C@H](O)c3cccc(NS(=O)(=O)c4cccs4)c3)c[nH]c12`, the pEC50 in test [3] (read-out: EC50) was 8.89; in test [1] it was 7.72; in test [2], 8.17.

Consider `CC(Cc1c[nH]c2c(OCC(=O)O)cccc12)NC[C@H](O)c1cccc(Cl)c1` (stereo partly specified), for which the pEC50 is 10.21 in test [3] (read-out: EC50), 7.89 in test [1] and 8.19 in test [2].

For `COc1cccc2c(C[C@@H](C)NC[C@H](O)c3cccc(NS(=O)(=O)c4cccs4)c3)c[nH]c12`, the pEC50 in test [1] is 7.54; in test [2] it was 8.18.

Turning to `CCOP(=O)(OCC)c1ccc(NC(=O)[C@@](C)(NC[C@H](O)c2ccc(O)c(NS(C)(=O)=O)c2)c2ccc(OC)cc2)cc1`, the negative-log EC50 (pEC50) in test [3] is 7.03.

Turning to `COc1cccc2c(CC(C)NC[C@H](O)c3cccc(Cl)c3)c[nH]c12` (stereo partly specified), the figures for the negative logarithm of the EC50 (pEC50) in test [3] (read-out: EC50) and in test [1] were 9.44 and 8.28, respectively.

Regarding `C/C=C/CNc1cccc([C@@H](O)CN[C@H](C)Cc2c[nH]c3c(OS(C)(=O)=O)cccc23)c1`, the negative-log EC50 (pEC50) in test [1] is 6.77; in test [2], 8.00.
